Assay [1] addresses T1, BRAF V600E (Homo sapiens, UniProt P15056+Q96SW2, V600E).
T1 construct: knock-in of the HiBiT tag to the endogenous BRAF V600E locus; host or cells: A375.10 (A375 clonal line, CRISPR HiBiT knock-in at the endogenous BRAF V600E locus)
Description: BRAF V600E HiBiT Degradation Assay. It is filed as cell-based. Conditions: A375.10 cells, BRAF V600E. In outline: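 Endogenous HiBiT knock-in on BRAF V600E in A375 cells (clone A375.10); 11-point half-log series, top 10 μM, 2, 6 or 24 h at 37° C. Lytic HiBiT luminescence, background-subtracted, normalized to DMSO; 4-parameter fit gives DC50, Emax (residual protein) and IP (inflection point).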
Background: HiBiT is a short tag that completes a luciferase, so light tracks the accessible tagged protein.

Assay [2] relates to A375-NRAS^Q61K cells. Description: CTGlo Cell Viability Assay, A375-NRAS^Q61K (A375.11) cells, 96 hours. Type of assay: cell-based, human. Conditions: A375.11 (A375-NRAS^Q61K) cells; for Emax / CTGlo A375.11 96 hours Emax: lowest % viability achieved. In outline: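 Viability as CellTiter-Glo ATP luminescence after 96 h compound exposure at 37 °C; A375.11 (BRAF V600E/NRAS Q61K) cells at 250/well, top final concentration 10 μM in half-log steps. Signal was background-corrected and set relative to DMSO controls. A 4-parameter logistic fit gave GI50 (50% crossing) and Emax.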

Where [3] appears, read: 2 hours, inflection point, read-out: HiBiT-Degradation A375.10 BRAF 2 hours IP.
Where [4] appears, read: 2 hours, read-out: HiBiT-Degradation A375.10 BRAF 2 hours DC50.
Where [5] appears, read: 2 hours, residual protein remaining, read-out: HiBiT-Degradation A375.10 BRAF 2 hours Emax.
Where [6] appears, read: HiBiT, 24 hours, read-out: HiBiT-Degradation A375.10 BRAF 24 hours DC50.
[7] abbreviates: HiBiT, 24 hours, read-out: HiBiT-Degradation A375.10 BRAF 24 hours Emax.
[8] abbreviates: HiBiT, 24 hours, read-out: HiBiT-Degradation A375.10 BRAF 24 hours IP.
The mark [9] stands for this setting: 2 hours, residual protein remaining.

What is called GI50 is the concentration giving 50% growth inhibition. A higher GI50 goes with less potent growth inhibition.

Where two headings read alike, the source gives them in different places. Bounds are passed on as bounds.

T1 sequence (P15056 whole entry V600E): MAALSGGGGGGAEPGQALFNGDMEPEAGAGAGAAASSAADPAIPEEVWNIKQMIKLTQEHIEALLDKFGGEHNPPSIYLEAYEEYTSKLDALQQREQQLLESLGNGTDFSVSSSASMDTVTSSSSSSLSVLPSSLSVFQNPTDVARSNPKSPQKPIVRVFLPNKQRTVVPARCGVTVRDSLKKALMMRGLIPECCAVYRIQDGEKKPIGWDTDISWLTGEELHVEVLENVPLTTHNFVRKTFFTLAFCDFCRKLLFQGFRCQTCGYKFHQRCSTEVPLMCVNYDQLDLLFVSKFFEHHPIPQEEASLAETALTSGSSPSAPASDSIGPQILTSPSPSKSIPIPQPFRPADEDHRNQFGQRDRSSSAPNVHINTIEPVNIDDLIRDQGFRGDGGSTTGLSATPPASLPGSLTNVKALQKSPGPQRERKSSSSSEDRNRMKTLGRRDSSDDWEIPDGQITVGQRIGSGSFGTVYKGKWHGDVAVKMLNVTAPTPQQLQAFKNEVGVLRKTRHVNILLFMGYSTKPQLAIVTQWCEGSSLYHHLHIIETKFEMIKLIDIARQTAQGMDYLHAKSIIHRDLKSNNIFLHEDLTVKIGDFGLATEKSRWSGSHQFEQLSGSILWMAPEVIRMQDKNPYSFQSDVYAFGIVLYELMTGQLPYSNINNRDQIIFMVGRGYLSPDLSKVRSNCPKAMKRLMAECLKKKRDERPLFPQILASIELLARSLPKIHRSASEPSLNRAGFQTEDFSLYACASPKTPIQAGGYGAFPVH
T1 sequence (Q96SW2 whole entry): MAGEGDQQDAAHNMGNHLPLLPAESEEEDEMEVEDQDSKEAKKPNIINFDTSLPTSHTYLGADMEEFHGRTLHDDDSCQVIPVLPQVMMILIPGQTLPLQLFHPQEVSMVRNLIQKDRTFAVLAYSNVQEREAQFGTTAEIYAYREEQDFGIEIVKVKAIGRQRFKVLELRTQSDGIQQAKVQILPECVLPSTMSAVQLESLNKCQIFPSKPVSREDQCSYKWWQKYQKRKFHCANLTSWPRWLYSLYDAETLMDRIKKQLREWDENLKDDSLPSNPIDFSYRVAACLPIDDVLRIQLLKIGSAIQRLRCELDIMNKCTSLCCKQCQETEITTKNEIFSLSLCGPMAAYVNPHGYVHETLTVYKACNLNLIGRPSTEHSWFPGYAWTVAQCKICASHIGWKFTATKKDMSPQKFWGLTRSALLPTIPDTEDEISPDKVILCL
T1 sequence (Q16531 whole entry partner): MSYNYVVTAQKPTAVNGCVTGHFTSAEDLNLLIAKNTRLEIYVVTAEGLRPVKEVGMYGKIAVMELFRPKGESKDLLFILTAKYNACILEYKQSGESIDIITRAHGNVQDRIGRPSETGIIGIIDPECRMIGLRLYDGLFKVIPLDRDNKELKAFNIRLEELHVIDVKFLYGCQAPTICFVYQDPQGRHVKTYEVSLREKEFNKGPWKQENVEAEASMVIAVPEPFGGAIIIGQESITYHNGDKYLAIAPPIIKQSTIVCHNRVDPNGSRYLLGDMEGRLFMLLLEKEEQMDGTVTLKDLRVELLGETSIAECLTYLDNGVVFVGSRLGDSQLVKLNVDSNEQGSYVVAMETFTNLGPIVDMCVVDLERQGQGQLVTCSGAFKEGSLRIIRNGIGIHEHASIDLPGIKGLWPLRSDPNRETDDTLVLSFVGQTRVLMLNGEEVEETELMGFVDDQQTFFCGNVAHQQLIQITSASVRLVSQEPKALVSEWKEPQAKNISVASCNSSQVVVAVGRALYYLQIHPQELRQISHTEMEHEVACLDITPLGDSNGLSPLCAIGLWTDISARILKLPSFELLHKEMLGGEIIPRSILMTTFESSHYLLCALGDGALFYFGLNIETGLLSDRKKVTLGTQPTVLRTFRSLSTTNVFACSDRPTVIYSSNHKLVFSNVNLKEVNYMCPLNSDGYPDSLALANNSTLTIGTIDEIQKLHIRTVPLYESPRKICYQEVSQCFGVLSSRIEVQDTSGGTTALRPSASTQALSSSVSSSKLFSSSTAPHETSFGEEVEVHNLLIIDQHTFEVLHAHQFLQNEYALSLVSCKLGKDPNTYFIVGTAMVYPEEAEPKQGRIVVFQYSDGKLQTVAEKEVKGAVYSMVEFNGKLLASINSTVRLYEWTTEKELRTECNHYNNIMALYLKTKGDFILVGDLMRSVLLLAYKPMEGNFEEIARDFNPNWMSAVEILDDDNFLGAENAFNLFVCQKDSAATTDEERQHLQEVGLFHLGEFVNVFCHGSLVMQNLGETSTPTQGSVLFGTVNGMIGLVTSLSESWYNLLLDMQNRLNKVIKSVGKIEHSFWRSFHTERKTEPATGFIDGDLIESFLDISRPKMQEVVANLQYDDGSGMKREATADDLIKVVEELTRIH

As to `CCN(C)S(=O)(=O)Nc1ccc(F)c(Oc2ccc3ncn([C@@H]4COC5(C4)CN(C4CC6(C4)CN(c4cc7c(cc4F)c(N4CCC(=O)NC4=O)nn7C)C6)C5)c(=O)c3c2)c1C#N` [Compound 311, (7S)-7-[6-[2-cyano-3-[[ethyl(methyl)sulfamoyl]amino]-6-fluoro-phenoxy]-4-oxo-quinazolin-3-yl]-2-[2-[3-(2,4-dioxohexahydropyrimidin-1-yl)-5-fluoro-1-methyl-indazol-6-yl]-2-azaspiro[3.3]heptan-6-yl]-5-oxa-2-azaspiro[3.4]octane], the DC50 is less than 1 µM in assay [1] (setting [3]), 1 to 10 µM in assay [1] (setting [4]), less than 1 µM in assay [1] (setting [6]) and less than 1 µM in assay [1] (setting [8]). Moreover, the Emax in assay [1] (setting [5]) was 50 to 90%; in assay [1] (setting [7]), less than 50%; in assay [2] (Homo sapiens, 96 h), 50 to 90%. In addition, the GI50 in assay [2] (Homo sapiens, 96 h) lay in the range of 1 to 10 µM.

Regarding `Cn1nc(N2CCC(=O)NC2=O)c2cc(F)c(N3CC4(CC(N5CCC6(CC5)C[C@@H](n5cnc7ccc(Oc8c(F)ccc(NS(=O)(=O)C9CC9)c8C#N)cc7c5=O)CO6)C4)C3)cc21` [Compound 234, N-[2-cyano-3-[3-[(3R)-8-[2-[3-(2,4-dioxohexahydropyrimidin-1-yl)-5-fluoro-1-methyl-indazol-6-yl]-2-azaspiro[3.3]heptan-6-yl]-1-oxa-8-azaspiro[4.5]decan-3-yl]-4-oxo-quinazolin-6-yl]oxy-4-fluoro-phenyl]cyclopropanesulfonamide], the DC50 in assay [1] (setting [3]), in assay [1] (setting [4]), in assay [1] (setting [6]) and in assay [1] (setting [8]) was less than 1 µM throughout. Further, the Emax is less than 50% in assay [1] (setting [5]); less than 50% in assay [1] (setting [7]); 50 to 90% in assay [2] (Homo sapiens, 96 h). The molecule further registered a GI50 in assay [2] (Homo sapiens, 96 h) of less than 1 µM.

`CO[C@@H]1CCN(S(=O)(=O)Nc2ccc(F)c(Oc3ccc4ncn(C5CC6(CCN(C7CCC(c8cc9c(cc8F)c(N8CCC(=O)NC8=O)nn9C)CC7)CC6)C5)c(=O)c4c3)c2C#N)C1` (single isomer, unassigned) [Compound 102]: the DC50 in assay [1] (setting [3]) was less than 1 µM; in assay [1] (setting [4]) it was less than 1 µM; in assay [1] (6 hours, inflection point, read-out: HiBiT-Degradation A375.10 BRAF 6 hours IP), less than 1 µM; in assay [1] (6 hours, read-out: HiBiT-Degradation A375.10 BRAF 6 hours DC50), less than 1 µM; in assay [1] (setting [6]) it was less than 1 µM; in assay [1] (setting [8]) it was less than 1 µM. Also, in assay [1] (setting [9]), the “HiBiT-Degradation A375.10 BRAF 2 hours Emax” value is recorded as “*** (<=50%)”. Besides, the “HiBiT-Degradation A375.10 BRAF 6 hours Emax” value in assay [1] (6 hours, residual protein remaining) is listed as “*** (<=50%)”. For the same molecule, the “HiBiT-Degradation A375.10 BRAF 24 hours Emax” value in assay [1] (HiBiT, 24 hours) is listed as “*** (<=50%)”. The molecule further displayed a GI50 in assay [2] of less than 1 µM. Also, the “CTGlo A375.11 96 hours Emax” value in assay [2] was “*** (<=50%)”.

For `CCN(C)S(=O)(=O)Nc1ccc(F)c(Oc2ccc3ncn(C4CC5(CCN(C6CCC(c7cc8c(cc7F)c(N7CCC(=O)NC7=O)nn8C)CC6)C5)C4)c(=O)c3c2)c1C#N` (single isomer, unassigned) [Compound 205, 6-[2-cyano-3-[[ethyl(methyl)sulfamoyl]amino]-6-fluoro-phenoxy]-3-[6-[4-[3-(2,4-dioxohexahydropyrimidin-1-yl)-5-fluoro-1-methyl-indazol-6-yl]cyclohexyl]-6-azaspiro[3.4]octan-2-yl]-4-oxo-quinazoline], the DC50 is less than 1 µM in assay [1] (setting [3]) and greater than 10 µM in assay [1] (setting [4]). For the same molecule, the “HiBiT-Degradation A375.10 BRAF 2 hours Emax” value in assay [1] (setting [9]) was “** (<90% and >50%)”. The molecule also had a GI50 in assay [2] greater than 10 µM. In addition, the Emax in assay [2] (Homo sapiens, 96 h) was in the range of 50 to 90%.

For the molecule `CCN(C)S(=O)(=O)Nc1ccc(F)c(Oc2ccc3ncn(C4CC5(CCN(C6CCC(c7ccc(NC8CCC(=O)NC8=O)cc7F)CC6)CC5)C4)c(=O)c3c2)c1F` (single isomer, unassigned) [Compound 166, 3-[7-[4-[4-[(2,6-dioxo-3-piperidyl)amino]-2-fluoro-phenyl]cyclohexyl]-7-azaspiro[3.5]nonan-2-yl]-6-[3-[[ethyl(methyl)sulfamoyl]amino]-2,6-difluoro-phenoxy]-4-oxo-quinazoline], the DC50 was less than 1 µM in assay [1] (setting [3]) and greater than 10 µM in assay [1] (setting [4]). Besides, the Emax in assay [1] (setting [5]) was 50 to 90%. The “CTGlo A375.11 96 hours Emax” value in assay [2] was “* (>=90%)”. The molecule further yielded a concentration for 50% growth inhibition (GI50) in assay [2] (Homo sapiens, 96 h) of 1 to 10 µM.
